Source: the NIST ThermoML archive (doi:10.1007/s10765-010-0742-8)
Where “and” joins values, the source holds several entries; their conditions need not be identical. Identical values can stand only once. Numbers after ± are expanded uncertainties.

What was measured:
[1] = mn = molality of the nth substance listed, in mol/kg; conditions: 101 kPa, Liquid, m1 = 0.1; for viscosity: Capillary tube (Ostwald / Ubbelohde) method; for mass density: Pycnometric method
[2] = refractive index (Na D-line) (dimensionless); mn = molality of the nth substance listed, in mol/kg; conditions: 101 kPa, Liquid, Standard Abbe refractometry, m1 = 0.1

O=C[C@H](O)[C@@H](O)[C@@H](O)[C@H](O)CO [(+)-galactose] + O
Conditions | mass density, [1] | refractive index, [2] | viscosity, [1] [mPa·s]
298.15 K | 1003.9 ± 0.3 kg/m3 | 1.3345 ± 0.0004 | 0.9284 ± 0.0067
303.15 K | 1002.3 ± 0.4 kg/m3 and 1002.4 ± 0.4 kg/m3 | 1.334 ± 0.0004 and 1.3339 ± 0.0004 | 0.8345 ± 0.0061
308.15 K | 1001 ± 0.4 kg/m3 | 1.3335 ± 0.0004 | 0.7518 ± 0.0055
313.15 K | 999.5 ± 0.4 kg/m3 | 1.3329 ± 0.0004 | 0.6858 ± 0.0051
